From patent US12448394B2, “Heterocyclic pyrazole derivatives as type III receptor tyrosine kinase inhibitors” (DEVELOPMENT CENTER FOR BIOTECHNOLOGY, priority 2019, dated 2025)

Key:
[1] = system: HCC827 NSCLC cell with EGFR exon 19 deletion mutation; test: HCC827 cell proliferation assay (counter screen); format: cell-based, human; details: Homo sapiens, HCC827 cells, 72 hours treatment, CellTiter96, read-out: anti-proliferation activity HCC827 EGFR Exon19 del, IC50 ranking
Protocol: (§1) Inhibitions of cell growths by compounds were measured using CellTiter™-96 assay. The cytotoxicities of compounds of the invention were evaluated in cell line panels with different signaling pathway dependencies, including MV4-11 human acute myeloid leukemia cell with FLT3-ITD mutation, Molm-14 human acute myeloid leukemia cell with FLT3-ITD mutation, THP-1 human acute monocytic leukemia cell with NRAS G12D mutation, A375 melanoma cell with BRAF V600E mutation, and HCC827 NSCLC cell with EGFR exon 19 deletion mutation.
HCC827 cells are non-small cell lung carcinoma (NSCLC) cells encoding EGFR exon 19 deletion mutation, which renders the cell growth dependent on EGFR signaling instead of class III RTKs signaling. HCC827 cells (catalog #CRL-2868) were obtained from the ATCC. Briefly, cells were cultured in RPMI1640 medium supplemented with 10% FBS and incubated at 37° C. in 5% CO2 atmosphere. Cells were allowed to expand until reaching saturation, at which point they were sub-cultured or harvested for assay use.
(§2) MV4-11, Molm-14, THP-1, A375, and HCC827 cells were seeded into 96-well plates at 6500, 25000, 5000, 2000 and 8000 cells/well, respectively, and incubated at 37° C., 5% CO2 overnight. Then, these seeded cells were treated with increasing concentrations of the test compounds and incubated for another 72 hours. At the end of the incubation, CellTiter96® AQueous One Solution Reagent (Promega, […]) was added and incubated for the additional 2˜4 hours. Cell viability was determined by measuring absorbance at 490 nm using EMax® microplate reader (Molecular Devices, San Jose, CA, USA).

[2] = system: MV4-11 human acute myeloid leukemia cell with FLT3-ITD mutation; test: MV4-11 cell proliferation assay (CellTiter 96); format: cell-based; details: Homo sapiens, MV4-11, 72 h, MV4-11 cells, 72 hours treatment, CellTiter96; read-out: anti-proliferation activity MV4-11 (FLT3-ITD), IC50 ranking
Protocol: as §1
The compounds disclosed herein were tested in MV4-11 cell proliferation assay to determine their cellular potencies against FLT3 signal pathway dependent cell growths. MV4-11 cells are human acute myeloid leukemia (AML) cells harboring ligand-independent FLT3-ITD activating mutation, which renders the abnormal proliferation of AML cells FLT3 signaling pathway dependent. Inhibition of FLT3 kinase activity will result in reduced growths and/or cell deaths. MV4-11 cells (catalog #CRL-9591) were obtained from the American Type Culture Collection (ATCC, Manassas, VA). Briefly, cells were grown in IMDM medium supplemented with 10% heat inactivated fetal bovine serum and incubated at 37° C. in 5% CO2 atmosphere. Cells were allowed to expand until reaching saturation, at which point they were sub-cultured or harvested for assay use.
as §2

[3] = system: THP-1 human acute monocytic leukemia cell with NRAS G12D mutation; test: THP-1 cell proliferation assay (counter screen); format: cell-based; details: Homo sapiens, THP-1 cells, 72 hours treatment, CellTiter96, read-out: anti-proliferation activity THP-1 NRAS N12D, IC50 ranking
Protocol: as §1
THP-1 cells are human acute monocytic leukemia cells with NRAS G12D mutation, which renders the cell growth independent of class III RTKs signaling. THP-1 cells (catalog #TIB-202) were obtained from the ATCC. Briefly, cells were grown in RPMI 1640 medium supplemented with 10% heat inactivated fetal bovine serum and 0.05 mM 2-mercaptoethanol and incubated at 37° C. in 5% CO2 atmosphere. Cells were allowed to expand until reaching saturation, at which point they were sub-cultured or harvested for assay use.
as §2

Compound | IC50 [1] | IC50 [2] | IC50 [3]
CN(C)c1ccc(-c2cc3c(s2)Cc2c(-c4ccc5cnn(C)c5c4)n[nH]c2-3)cn1 [Compound 5, N,N-dimethyl-5-(3-(1-methyl-1H-indazol-6-yl)-1,4-dihydrothieno [2′,3′:4,5]cyclopenta[1,2-c]pyrazol-6-yl)pyridin-2-amine] | > 10 µM | 0.03 to 0.1 µM | > 10 µM
c1cc(-c2cc3c(s2)Cc2c(-c4ccc5cn[nH]c5c4)n[nH]c2-3)ccc1CN1CCOCC1 [Compound 6, 4-(4-(3-(1H-indazol-6-yl)-1,4-dihydrothieno[2′,3′:4,5]cyclopenta[1,2-c]pyrazol-6-yl)benzyl)morpholine] | > 10 µM | < 0.03 µM | > 10 µM
C[C@@H]1CN(Cc2ccc(-c3cc4c(s3)Cc3c(-c5ccc6cn[nH]c6c5)n[nH]c3-4)cc2)C[C@H](C)O1 [Compound 7, (2S,6R)-4-(4-(3-(1H-indazol-6-yl)-1,4-dihydrothieno[2′,3′:4,5]cyclopenta [1,2-c]pyrazol-6-yl)benzyl)-2,6-dimethylmorpholine] | > 10 µM | < 0.03 µM | > 10 µM
Cn1ncc2ccc(-c3n[nH]c4c3Cc3sc(-c5ccc(CN6CCOCC6)cc5)cc3-4)cc21 [Compound 8, 4-(4-(3-(1-methyl-1H-indazol-6-yl)-1,4-dihydro-thieno[2′,3′:4,5]cyclopenta [1,2-c]pyrazol-6-yl)benzyl) morpholine] | > 10 µM | < 0.03 µM | > 10 µM
C[C@@H]1CN(Cc2ccc(-c3cc4c(s3)Cc3c(-c5ccc6cnn(C)c6c5)n[nH]c3-4)cn2)C[C@H](C)O1 [Compound 9, (2S,6R)-2,6-dimethyl-4-((5-(3-(1-methyl-lH-indazol-6-yl)-1,4-dihydro-thieno[2′,3′:4,5]cyclopenta [1,2-c]pyrazol-6-yl)pyridin-2-yl)methyl) morpholine] | > 10 µM | < 0.03 µM | > 10 µM
Cn1ncc2ccc(-c3n[nH]c4c3Cc3sc(-c5ccc(CN6CCOCC6)nc5)cc3-4)cc21 [Compound 10, 4-((5-(3-(1-methyl-1H-indazol-6-yl)-1,4-dihydro-thieno[2′,3′:4,5]cyclopenta [1,2-c]pyrazol-6-yl)pyridin-2-yl)methyl)morpholine] | > 10 µM | < 0.03 µM | > 10 µM
Cc1ccc(-c2cc3c(s2)Cc2c(-c4ccc5cnn(C)c5c4)n[nH]c2-3)cn1 [Compound 11, 3-(1-methyl-1H-indazol-6-yl)-6-(6-methylpyridin-3-yl)-1,4-dihydrothieno [2′,3′:4,5]cyclopenta[1,2-c] pyrazole] | > 10 µM | < 0.03 µM | > 10 µM
C[C@@H]1CN(Cc2cccc(-c3cc4c(s3)Cc3c(-c5ccc6cnn(C)c6c5)n[nH]c3-4)c2)C[C@H](C)O1 [Compound 12, (2S,6R)-2,6-dimethyl-4-(3-(3-(1-methyl-1H-indazol-6-yl)-1,4-dihydrothieno [2′,3′:4,5]cyclopenta[1,2-c]pyrazol-6-yl)benzyl) morpholine] | > 10 µM | 0.03 to 0.1 µM | > 10 µM
Cn1ncc2ccc(-c3n[nH]c4c3Cc3sc(-c5cccc(CN6CCOCC6)c5)cc3-4)cc21 [Compound 13, 4-(3-(3-(1-methyl-1H-indazol-6-yl)-1,4-dihydro-thieno[2′,3′:4,5]cyclopenta [1,2-c]pyrazol-6-yl)benzyl) morpholine] | > 10 µM | 0.03 to 0.1 µM | > 10 µM
CN1CCN(Cc2cccc(-c3cc4c(s3)Cc3c(-c5ccc6cnn(C)c6c5)n[nH]c3-4)c2)CC1 [Compound 14, 3-(1-methyl-1H-indazol-6-yl)-6-(3-((4-methylpiperazin-1-yl)methyl)phenyl)-1,4-dihydrothieno [2′,3′:4,5]cyclopenta[1,2-c] pyrazole] | > 10 µM | < 0.03 µM | > 10 µM
CN1CCN(C(=O)c2ccc(-c3cc4c(s3)Cc3c(-c5ccc6cnn(C)c6c5)n[nH]c3-4)cc2)CC1 [Compound 15, (4-(3-(1-methyl-1H-indazol-6-yl)-1,4-dihydrothieno[2′,3′:4,5]cyclopenta[1,2-c]pyrazol-6-yl)phenyl)(4-methyl-piperazin-1-yl)methanone] | > 10 µM | < 0.03 µM | > 10 µM
C[C@@H]1CN(Cc2ccc(-c3cc4c(s3)Cc3c(-c5ccc6cn[nH]c6c5)n[nH]c3-4)cn2)C[C@H](C)O1 [Compound 16, (2R,6S)-4-((5-(3-(1H-indazol-6-yl)-1,4-dihydro-thieno[2′,3′:4,5]cyclopenta [1,2-c]pyrazol-6-yl)pyridin-2-yl)methyl)-2,6-dimethylmorpholine] | > 10 µM | < 0.03 µM | > 10 µM
Cc1cc(-c2cc3c(s2)Cc2c(-c4ccc5cnn(C)c5c4)n[nH]c2-3)ccn1 [Compound 17, 3-(1-methyl-1H-indazol-6-yl)-6-(2-methylpyridin-4-yl)-1,4-dihydrothieno [2′,3′:4,5]cyclopenta[1,2-c] pyrazole] | > 10 µM | < 0.03 µM | > 10 µM
c1cc(CN2CCOCC2)ncc1-c1cc2c(s1)Cc1c(-c3ccc4cn[nH]c4c3)n[nH]c1-2 [Compound 18, 4-((5-(3-(1H-indazol-6-yl)-1,4-dihydrothieno[2′,3′:4,5]cyclopenta[1,2-c]pyrazol-6-yl)pyridin-2-yl)methyl) morpholine] | > 10 µM | < 0.03 µM | > 10 µM
C[C@@H]1CN(C(=O)c2ccc(-c3cc4c(s3)Cc3c(-c5ccc6cnn(C)c6c5)n[nH]c3-4)cc2)C[C@H](C)O1 [Compound 19, ((2S,6R)-2,6-dimethyl-morpholino)(4-(3-(1-methyl-1H-indazol-6-yl)-1,4-dihydrothieno[2′,3′:4,5]cyclopenta[1,2-c]pyrazol-6-yl)phenyl)methanone] | > 10 µM | < 0.03 µM | > 10 µM
CC(c1ccc(-c2cc3c(s2)Cc2c(-c4ccc5cnn(C)c5c4)n[nH]c2-3)cc1)N1CCOCC1 (stereo not drawn) [Compound 20, 4-(1-(4-(3-(1-methyl-1H-indazol-6-yl)-1,4-dihydro-thieno[2′,3′:4,5]cyclopenta [1,2-c]pyrazol-6-yl)phenyl)ethyl)morpholine] | > 10 µM | < 0.03 µM | > 10 µM
Cn1ncc2ccc(-c3n[nH]c4c3Cc3sc(-c5ccc(C(=O)N6CCOCC6)cc5)cc3-4)cc21 [Compound 21, (4-(3-(1-methyl-1H-indazol-6-yl)-1,4-dihydro-thieno[2′,3′:4,5]cyclopenta [1,2-c]pyrazol-6-yl)phenyl) (morpholino)methanone] | > 10 µM | < 0.03 µM | > 10 µM
Cn1ncc2ccc(-c3n[nH]c4c3Cc3sc(-c5ccc(CCN6CCOCC6)cc5)cc3-4)cc21 [Compound 22, 4-(4-(3-(1-methyl-1H-indazol-6-yl)-1,4-dihydro-thieno[2′,3′:4,5]cyclopenta [1,2-c]pyrazol-6-yl)phenethyl)morpholine] | > 10 µM | < 0.03 µM | > 10 µM
Cn1ncc2ccc(-c3n[nH]c4c3Cc3sc(-c5ccc(C(=O)N6CCOCC6)nc5)cc3-4)cc21 [Compound 23, (5-(3-(1-methyl-1H-indazol-6-yl)-1,4-dihydro-thieno[2′,3′:4,5]cyclopenta [1,2-c]pyrazol-6-yl)pyridin-2-yl)(morpholino) methanone] | > 10 µM | < 0.03 µM | > 10 µM
COc1cc(-c2cc3c(s2)Cc2c(-c4ccc5cnn(C)c5c4)n[nH]c2-3)ccc1CN1CCOCC1 [Compound 24, 4-(2-methoxy-4-(3-(1-methyl-1H-indazol-6-yl)-1,4-dihydrothieno[2′,3′:4,5]cyclopenta[1,2-c]pyrazol-6-yl)benzyl)morpholine] | > 10 µM | < 0.03 µM | > 10 µM
